Experimental data: publication PMC11998406 (BMC Chemistry, 2025)

Assays:
[1] = system: SH-SY5Y neuroblastoma cell line; test: Cell viability; format: cell-based; settings: up to 25 µM
BChE = BChE (Equus caballus, UniProt P81908); test: Kinetic study of BChE inhibition; format: biochemical, horse; settings: 13s at 0, 5, 20, 40 µM; butyrylthiocholine iodide 187.5-3000 µM
BChE, sequence (P81908 whole entry): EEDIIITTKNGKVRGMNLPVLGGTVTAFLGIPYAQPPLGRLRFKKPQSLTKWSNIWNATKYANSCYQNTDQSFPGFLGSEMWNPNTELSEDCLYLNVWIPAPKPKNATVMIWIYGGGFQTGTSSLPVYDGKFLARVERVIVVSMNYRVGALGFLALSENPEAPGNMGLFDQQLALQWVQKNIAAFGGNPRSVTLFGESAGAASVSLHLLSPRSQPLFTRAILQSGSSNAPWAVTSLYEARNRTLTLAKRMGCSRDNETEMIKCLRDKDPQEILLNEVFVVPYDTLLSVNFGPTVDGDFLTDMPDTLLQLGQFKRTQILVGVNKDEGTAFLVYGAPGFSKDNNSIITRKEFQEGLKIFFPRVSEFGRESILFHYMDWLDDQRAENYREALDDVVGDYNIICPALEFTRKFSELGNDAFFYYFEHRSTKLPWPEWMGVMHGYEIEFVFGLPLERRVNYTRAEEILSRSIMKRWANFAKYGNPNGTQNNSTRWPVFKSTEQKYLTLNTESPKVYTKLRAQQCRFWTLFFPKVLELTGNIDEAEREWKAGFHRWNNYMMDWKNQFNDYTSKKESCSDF

Cc1ccc(Cn2cc(COc3ccc(-c4nnc(-c5ccc([N+](=O)[O-])cc5)o4)cc3)nn2)cc1 [Compound 13s, 2-(4-((1-(4-Methylbenzyl)-1 H-1,2,3-triazol-4-yl)methoxy)phenyl)-5-(4-nitrophenyl)-1,3,4-oxadiazole]
toxicity [1]: no toxicity | mechanism of BChE inhibition (Lineweaver-Burk) (BChE): competitive inhibition pattern
